Active and inactive are the calls of the source.
How the values were obtained:
Aminopeptidase N = biological target: T1, Aminopeptidase N (Plasmodium falciparum FcB1/Columbia, UniProt O96935); assay: P. falciparum M1AAP inhibitors, biochemical, fluorogenic H-Leu-NHMec substrate, 1536-well (AID 1445); design: species or system Plasmodium falciparum 3D7, 3D7
T1 sequence (O96935 whole entry): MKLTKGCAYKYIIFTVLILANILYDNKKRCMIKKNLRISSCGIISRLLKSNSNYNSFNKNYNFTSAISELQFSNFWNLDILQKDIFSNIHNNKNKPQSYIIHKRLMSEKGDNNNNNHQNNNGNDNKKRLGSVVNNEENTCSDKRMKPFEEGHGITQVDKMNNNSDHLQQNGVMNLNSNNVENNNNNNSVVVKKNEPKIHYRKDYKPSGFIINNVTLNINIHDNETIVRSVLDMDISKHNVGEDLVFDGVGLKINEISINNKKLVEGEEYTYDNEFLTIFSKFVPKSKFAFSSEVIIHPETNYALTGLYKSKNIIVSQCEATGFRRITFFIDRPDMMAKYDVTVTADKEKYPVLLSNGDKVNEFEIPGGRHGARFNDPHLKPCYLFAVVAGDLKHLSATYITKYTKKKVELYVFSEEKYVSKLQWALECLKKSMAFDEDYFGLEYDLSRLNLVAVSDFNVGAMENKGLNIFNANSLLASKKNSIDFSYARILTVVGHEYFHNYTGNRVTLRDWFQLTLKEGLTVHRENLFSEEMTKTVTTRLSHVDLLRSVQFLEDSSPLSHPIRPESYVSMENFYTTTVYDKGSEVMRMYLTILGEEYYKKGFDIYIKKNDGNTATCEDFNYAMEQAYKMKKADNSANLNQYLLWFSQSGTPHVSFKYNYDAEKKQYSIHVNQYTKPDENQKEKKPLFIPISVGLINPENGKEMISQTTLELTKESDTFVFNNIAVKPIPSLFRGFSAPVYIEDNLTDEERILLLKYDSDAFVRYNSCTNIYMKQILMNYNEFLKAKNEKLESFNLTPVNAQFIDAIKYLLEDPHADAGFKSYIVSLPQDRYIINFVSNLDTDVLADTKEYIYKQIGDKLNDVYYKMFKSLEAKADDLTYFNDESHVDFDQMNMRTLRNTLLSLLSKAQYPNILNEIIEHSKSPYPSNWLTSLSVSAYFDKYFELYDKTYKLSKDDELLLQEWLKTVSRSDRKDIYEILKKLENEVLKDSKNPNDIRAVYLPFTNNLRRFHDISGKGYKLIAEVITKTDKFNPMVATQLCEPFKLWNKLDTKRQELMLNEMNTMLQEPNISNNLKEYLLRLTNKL

[1] = biological target: T2, Voltage-gated inwardly rectifying potassium channel KCNH2 (Homo sapiens, UniProt Q12809); assay: concentration dependence of hERG rescue from dofetilide, dose response, manual patch clamp, HEK293 cells (AID 2638); format: ADME
[2] = biological target: T2, Voltage-gated inwardly rectifying potassium channel KCNH2; assay: hERG protection from proarrhythmic block, potency, dose response, cell-based, thallium flux (AID 2121); format: ADME
[3] = biological target: Bifunctional protein GlmU (Mycobacterium tuberculosis, UniProt P9WMN3); assay: Inhibitors of Mycobacterial Glucosamine-1-phosphate acetyl transferase (GlmU). Secondary screen.; design: species or system Mycobacterium tuberculosis H37Rv
[4] = MC4R antagonists, dose response, counter-screen for LGR2 antagonist project, cell-based, plate reader, cherry pick (AID 743444); format: functional;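 further: transfected HEK 293 cells stimulated with alpha-MSH peptide; potency of inhibitors of the alpha-MSH evoked signal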
[5] = LGR2 antagonists, dose response, cell-based, HEK293, CRE-luciferase reporter, cherry pick, set 2 (AID 743343); format: functional;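 further: transfected cells were stimulated with diluted bursicon conditioned medium after compound addition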
[6] = biological target: T3, Replicative DNA helicase DnaB (Mycobacterium tuberculosis, UniProt P9WMR3); assay: DnaB intein splicing inhibitors, dose response, biochemical, cell-free fluorescence (AID 449749); format: functional
T3 sequence (P9WMR3 whole entry): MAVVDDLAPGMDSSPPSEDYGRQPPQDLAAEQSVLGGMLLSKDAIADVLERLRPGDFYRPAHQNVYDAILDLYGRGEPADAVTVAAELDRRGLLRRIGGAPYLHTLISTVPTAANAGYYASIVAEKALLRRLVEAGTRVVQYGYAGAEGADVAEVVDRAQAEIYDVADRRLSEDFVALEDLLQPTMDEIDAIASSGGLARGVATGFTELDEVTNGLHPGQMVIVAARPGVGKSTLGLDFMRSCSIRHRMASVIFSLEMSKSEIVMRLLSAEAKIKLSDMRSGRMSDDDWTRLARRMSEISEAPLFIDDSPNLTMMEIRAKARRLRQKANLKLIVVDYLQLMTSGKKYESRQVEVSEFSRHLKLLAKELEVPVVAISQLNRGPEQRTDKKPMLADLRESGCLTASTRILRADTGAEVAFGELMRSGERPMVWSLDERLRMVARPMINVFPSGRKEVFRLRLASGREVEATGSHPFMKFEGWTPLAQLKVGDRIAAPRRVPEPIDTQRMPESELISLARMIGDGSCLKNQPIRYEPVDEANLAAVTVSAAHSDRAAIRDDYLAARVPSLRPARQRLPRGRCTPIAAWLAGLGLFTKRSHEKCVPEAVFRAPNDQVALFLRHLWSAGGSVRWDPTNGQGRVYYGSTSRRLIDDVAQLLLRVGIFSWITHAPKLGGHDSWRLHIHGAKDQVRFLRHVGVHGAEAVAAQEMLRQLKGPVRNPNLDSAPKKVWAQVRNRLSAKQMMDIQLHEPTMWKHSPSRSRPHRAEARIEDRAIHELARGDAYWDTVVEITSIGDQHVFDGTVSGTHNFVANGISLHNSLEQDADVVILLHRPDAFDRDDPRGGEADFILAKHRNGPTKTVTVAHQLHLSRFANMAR

[7] = HepG2 cell cytotoxicity, dose response, cytotoxicity control, plate reader, cherry-pick, antagonist series (AID 743416); format: functional, cell-based
[8] = Shn3 3'UTR reporter inhibitors, dose response, cell-based, Clone20 osteoblasts, firefly luciferase, cherry-picked (AID 624132); format: functional;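 further: firefly luciferase luminescence from reporter carrying the Shn3 3'UTR in osteoblasts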
[9] = HEK293 cell cytotoxicity, dose response, cytotoxicity control, plate reader, cherry-picked samples (AID 743446); format: functional, cell-based
Beta Lactamase = Beta Lactamase (Pseudomonas aeruginosa, UniProt Q932Y6); assay: beta-lactamase reporter inhibitor potency, dose response, artefact control for TLR9-MyD88 binding inhibitor project, BLA reporter cells, FRET fluorescence (AID 588341); format: cell-based;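 further: cell based assay in CHO-K1 cells stably expressing beta-lactamase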
[10] = A549 cell cytotoxicity, dose response, cytotoxicity control, plate reader, cherry-pick, antagonist series (AID 743412); format: functional, cell-based
[11] = biological target: G-protein coupled receptor 55 (Homo sapiens, UniProt Q9Y2T6); assay: GPR55 antagonists blocking LPI-driven arrestin recruitment, primary screen, imaging, U2OS, beta-arrestin-GFP, LPI agonist (AID 2013); format: functional;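 further: antagonist potency measured as reduced agonist-driven arrestin aggregation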
[12] = Luminescent dose response cell-based high throughput screening assay for inhibitors of the Janus kinase 2 mutant JAK2V617F. [Related pubchem assays: 1446 (Primary screen.), 1521 (Confirmation assay.), 1486 (Counter screen.)]; format: functional
[13] = cytotoxicity toward NIH3T3 fibroblasts, dose response, counter-screen, cell-based, ATP luminescence, mouse fibroblasts (AID 2010); format: functional;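 further: cells exposed to compound for about 90 hours before reading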
[14] = NIH-3T3 fibroblast cytotoxicity, dose response, cytotoxicity control, cell-based, fluorescence, Alamar Blue, secondary assay (AID 2327); format: functional;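 further: NIH-3T3 mouse fibroblasts cultured with fluconazole at 8 µg/mL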
Protein RecA = biological target: T4, Protein RecA (Mycobacterium tuberculosis, UniProt P9WHJ3); assay: Fluorescence Cell-Free Homogeneous Dose Retest to Identify Inhibitors of RecA-Intein Splicing Activity. [Related pubchem assays (depositor defined):AID2097, AID2223, AID489010, AID492950]; format: functional
T4 sequence (P9WHJ3 whole entry): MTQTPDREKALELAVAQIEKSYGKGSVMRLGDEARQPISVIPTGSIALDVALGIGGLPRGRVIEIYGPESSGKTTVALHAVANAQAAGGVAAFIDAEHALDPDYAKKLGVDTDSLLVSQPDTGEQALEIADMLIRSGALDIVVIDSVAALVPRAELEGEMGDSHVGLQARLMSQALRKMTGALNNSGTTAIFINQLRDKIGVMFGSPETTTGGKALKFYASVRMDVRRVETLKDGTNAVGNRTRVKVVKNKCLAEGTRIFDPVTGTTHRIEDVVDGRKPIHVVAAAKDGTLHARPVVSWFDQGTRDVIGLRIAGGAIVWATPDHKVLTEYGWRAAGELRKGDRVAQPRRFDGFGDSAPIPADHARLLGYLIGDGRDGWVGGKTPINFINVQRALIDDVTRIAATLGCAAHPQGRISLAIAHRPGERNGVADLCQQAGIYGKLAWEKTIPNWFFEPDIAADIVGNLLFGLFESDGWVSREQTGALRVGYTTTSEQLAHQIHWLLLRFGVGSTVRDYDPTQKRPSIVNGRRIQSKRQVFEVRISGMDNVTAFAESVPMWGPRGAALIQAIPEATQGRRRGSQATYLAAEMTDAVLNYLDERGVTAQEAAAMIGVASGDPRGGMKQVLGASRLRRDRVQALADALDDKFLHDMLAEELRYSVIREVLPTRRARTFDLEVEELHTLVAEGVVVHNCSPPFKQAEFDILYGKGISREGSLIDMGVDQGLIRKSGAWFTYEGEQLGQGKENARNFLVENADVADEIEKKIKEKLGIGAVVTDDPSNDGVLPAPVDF

[15] = C. albicans growth with fluconazole, confirmation, fluorescence, retest (AID 2467); format: functional, cell-based
[16] = inhibitors of intracellular T. cruzi replication, confirmation, NIH3T3 host cells, beta-gal luminescence (AID 2044); format: functional, cell-based;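 further: intracellular parasites grown in NIH/3T3 mouse fibroblasts as host cells; luminescent beta-galactosidase reporter signal from transgenic T. cruzi replicating inside host cells; inhibitors lower the luminescence signal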
[17] = control 3'UTR Renilla luciferase suppression, dose response, counter-screen for Shn3 inhibitor project, cell-based, Clone20-Shn3RL, cherry-picked (AID 624133); format: functional
CHO = assay: cytotoxicity in TLR9-MyD88 CHO cells, dose response, cytotoxicity control for TLR9-MyD88 binding inhibitor project, cell-based, luminescence (AID 588339); format: functional, hamster; details: Cricetulus griseus;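 further: CHO cells stably coexpressing TLR9 and MyD88 fusions from primary screen; compound exposure lasted 48 hours before viability readout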

T2 sequence (Q12809 whole entry): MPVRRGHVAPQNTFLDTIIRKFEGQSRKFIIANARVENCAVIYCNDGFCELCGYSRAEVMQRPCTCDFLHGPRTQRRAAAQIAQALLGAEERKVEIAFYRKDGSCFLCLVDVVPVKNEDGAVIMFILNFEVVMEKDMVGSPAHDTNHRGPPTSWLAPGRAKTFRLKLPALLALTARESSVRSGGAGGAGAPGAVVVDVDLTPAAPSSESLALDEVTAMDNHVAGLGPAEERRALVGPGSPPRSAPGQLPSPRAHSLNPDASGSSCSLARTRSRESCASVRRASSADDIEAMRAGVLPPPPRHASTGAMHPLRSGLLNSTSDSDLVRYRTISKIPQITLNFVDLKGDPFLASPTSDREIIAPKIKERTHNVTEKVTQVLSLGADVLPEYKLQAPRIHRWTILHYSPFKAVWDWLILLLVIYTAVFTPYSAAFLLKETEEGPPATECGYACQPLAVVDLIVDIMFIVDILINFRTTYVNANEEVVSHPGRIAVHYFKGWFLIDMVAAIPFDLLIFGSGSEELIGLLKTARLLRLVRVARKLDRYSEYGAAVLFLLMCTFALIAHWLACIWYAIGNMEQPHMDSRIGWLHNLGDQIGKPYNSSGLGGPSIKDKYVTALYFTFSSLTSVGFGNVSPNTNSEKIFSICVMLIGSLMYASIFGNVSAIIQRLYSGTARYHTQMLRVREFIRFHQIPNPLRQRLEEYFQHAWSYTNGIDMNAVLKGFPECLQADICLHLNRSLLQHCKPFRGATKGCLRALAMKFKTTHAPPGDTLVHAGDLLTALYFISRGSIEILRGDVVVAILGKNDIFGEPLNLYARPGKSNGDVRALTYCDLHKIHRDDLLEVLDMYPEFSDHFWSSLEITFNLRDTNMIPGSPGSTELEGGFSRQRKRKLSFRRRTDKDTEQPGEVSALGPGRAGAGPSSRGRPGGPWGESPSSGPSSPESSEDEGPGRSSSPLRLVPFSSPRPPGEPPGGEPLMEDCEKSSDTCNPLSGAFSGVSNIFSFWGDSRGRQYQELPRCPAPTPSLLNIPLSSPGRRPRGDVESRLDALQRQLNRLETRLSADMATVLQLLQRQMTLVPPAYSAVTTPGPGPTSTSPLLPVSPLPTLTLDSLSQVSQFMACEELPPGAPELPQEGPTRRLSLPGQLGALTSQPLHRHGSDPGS
Chain of G-protein coupled receptor 55 (Q9Y2T6 whole entry): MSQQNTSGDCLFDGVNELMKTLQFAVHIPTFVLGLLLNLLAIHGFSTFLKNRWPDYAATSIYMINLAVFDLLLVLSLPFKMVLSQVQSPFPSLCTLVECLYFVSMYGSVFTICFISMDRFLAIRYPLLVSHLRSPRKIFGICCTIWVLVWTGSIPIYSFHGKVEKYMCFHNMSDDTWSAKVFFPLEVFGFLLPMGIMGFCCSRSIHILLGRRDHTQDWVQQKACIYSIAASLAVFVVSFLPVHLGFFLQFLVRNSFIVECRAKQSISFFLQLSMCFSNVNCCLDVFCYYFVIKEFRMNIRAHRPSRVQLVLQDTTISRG
Chain of Beta Lactamase (Q932Y6 whole entry): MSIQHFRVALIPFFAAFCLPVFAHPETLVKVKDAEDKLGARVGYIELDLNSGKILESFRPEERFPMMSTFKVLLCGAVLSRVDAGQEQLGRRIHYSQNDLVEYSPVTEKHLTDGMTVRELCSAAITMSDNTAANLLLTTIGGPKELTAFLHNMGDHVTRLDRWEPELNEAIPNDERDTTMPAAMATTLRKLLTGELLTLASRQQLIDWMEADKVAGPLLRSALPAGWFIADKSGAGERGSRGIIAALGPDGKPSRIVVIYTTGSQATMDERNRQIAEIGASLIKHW
Chain of Bifunctional protein GlmU (P9WMN3 whole entry): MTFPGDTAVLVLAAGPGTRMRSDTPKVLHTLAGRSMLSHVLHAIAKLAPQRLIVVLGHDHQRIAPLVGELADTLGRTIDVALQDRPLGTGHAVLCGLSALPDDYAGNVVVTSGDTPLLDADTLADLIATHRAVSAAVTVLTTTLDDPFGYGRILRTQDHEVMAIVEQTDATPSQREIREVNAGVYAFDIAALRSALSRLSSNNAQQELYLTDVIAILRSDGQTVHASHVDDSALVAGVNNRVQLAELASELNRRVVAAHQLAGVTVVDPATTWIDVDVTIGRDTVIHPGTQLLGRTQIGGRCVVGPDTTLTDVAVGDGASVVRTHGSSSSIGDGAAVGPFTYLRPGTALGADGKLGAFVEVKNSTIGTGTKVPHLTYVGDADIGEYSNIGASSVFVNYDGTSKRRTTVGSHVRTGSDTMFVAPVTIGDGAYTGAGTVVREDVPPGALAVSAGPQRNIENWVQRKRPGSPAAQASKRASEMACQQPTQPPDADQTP

For CCC1CCCCN1C(=S)NC(=O)c1cccs1 (stereo unspecified), the IC50 (Aminopeptidase N) was 30 µM (active), the EC50 [1] was 5.2 µM (active) and the EC50 [2] was 0.29 µM (active).
With CNC(=O)c1nnsc1[S+]([O-])c1ccc(Cl)cc1 (stereo unspecified) the IC50 [3] was 108 µM (active), the AC50 [4] was 2.49 µM (active) and the AC50 [5] was 2.58 µM (active). For the same compound, the AC50 [6] was 41.2 µM (active), the AC50 [7] was 9.72 µM (active) and the AC50 [8] was 2.02 µM (active). The AC50 [9] was 12 µM (active), the IC50 (Beta Lactamase) was 19.6 µM (inactive) and the AC50 [10] was 11.5 µM (active). The IC50 [11] was 2.73 µM (active), the IC50 [12] was 0.707 µM (active) and the EC50 [13] was 1.9 µM (active). The EC50 [14] was 5.05 µM (inconclusive), the EC50 (Protein RecA) was 21 µM (active) and the EC50 [15] was 2.07 µM (active). For the same compound, the EC50 [16] was 0.977 µM (active), the AC50 [17] was 6.49 µM (active) and the IC50 (CHO) was 2.23 µM (active).
